Test results as given in patent US9919998B2, “Antibacterial agents: Nα-aroyl-N-aryl-phenylalaninamides” (priority 2014, dated 2018).
≈ marks a conversion by molar mass, not a printed value.

What was measured:
Assay type in all cases: cell-based
[1] = system: Mycobacterium avium ATCC 25291; experiment: Microplate Alamar Blue assay (MABA) MIC, M. avium; details: ATCC25291, M. avium ATCC 25291
Description: (§1) Minimal inhibitory concentrations (MICs) in Mycobacterium tuberculosis H37Rv and Mycobacterium avium ATCC 25291 were quantified using microplate Alamar Blue assays as described (MABA; [Collins, L. & Franzblau, S. (1997) Microplate Alamar Blue assay versus BACTEC 460 system for high-throughput screening of compounds against Mycobacterium tuberculosis and Mycobacterium avium. Antimicrob. Agents Chemother. 41, 1004-1009]).

[2] = system: Vero E6 ATCC CRL1586 cells; experiment: Mammalian-cell cytotoxicity, minimal cytotoxic concentration (CellTiter96)
Experimental: Minimal cytotoxic concentrations (MCCs) against mammalian cells in culture were determined using Vero E6 ATCC CRL1586 cells and the CellTiter96 assay kit (Promega, Inc.). […]

[3] = system: Mycobacterium smegmatis ATCC 19420; experiment: Broth microdilution MIC, M. smegmatis; details: Mycolicibacterium smegmatis, ATCC19420, M. smegmatis ATCC 19420; read-out: MIC Mycobacterium smegmatis ATCC 19420
Description: MICs in Mycobacterium smegmatis ATCC 19420 and Mycobacterium smegmatis ATCC 19420 derivatives were quantified using broth microdilution assays as described [Clinical and Laboratory Standards Institute (CLSI/NCCLS) (2009) Methods for Dilution Antimicrobial Susceptibility Tests for Bacteria That Grow Aerobically; Approved Standard, Eighth Edition. CLIS Document M07-A8 (CLIS, Wayne Pa.)].

[4] = system: Mycobacterium tuberculosis H37Rv; experiment: Microplate Alamar Blue assay (MABA) MIC, M. tuberculosis; details: read-out: MIC Mycobacterium tuberculosis H37Rv
Description: as §1

O=C(NC(Cc1ccccc1)C(=O)Nc1cc(F)ccc1N1CCOCC1)c1ccccc1 (stereo not drawn) [IX-157, N-(1-((5-fluoro-2-morpholinophenyl)amino)-1-oxo-3-phenylpropan-2-yl)benzamide]
MIC [1]: 1.56 µg/mL (≈ 3.49 µM) | MCC mammalian cells Vero E6 ATCC CRL1586 [2]: 48 µg/mL | MIC [3]: 0.047 µg/mL (≈ 0.105 µM) | MIC [4]: 0.78 µg/mL (≈ 1.74 µM)

O=C(NC(Cc1ccccc1)C(=O)Nc1cc(F)ccc1N1CCOCC1)c1ccccc1F (stereo not drawn) [IX-158, 2-fluoro-N-(1-((5-fluoro-2-morpholinophenyl)amino)-1-oxo-3-phenyl-propan-2-yl)benzamide]
MIC [1]: 0.78 µg/mL (≈ 1.68 µM) | MCC mammalian cells Vero E6 ATCC CRL1586 [2]: >100 µg/mL | MIC [3]: 0.097 µg/mL (≈ 0.208 µM) | MIC [4]: 0.78 µg/mL (≈ 1.68 µM)

Cc1ccccc1C(=O)NC(Cc1ccccc1)C(=O)Nc1cc(F)ccc1N1CCOCC1 (stereo not drawn) [IX-159, N-(1-((5-fluoro-2-morpholinophenyl)amino)-1-oxo-3-phenylpropan-2-yl)-2-methylbenzamide]
MIC [1]: 0.39 µg/mL (≈ 0.845 µM) | MCC mammalian cells Vero E6 ATCC CRL1586 [2]: 10 µg/mL | MIC [3]: 0.047 µg/mL (≈ 0.102 µM) | MIC [4]: 0.39 µg/mL (≈ 0.845 µM)

O=C(NC(Cc1ccccc1)C(=O)Nc1cc(F)ccc1N1CCOCC1)c1cccs1 (stereo not drawn) [IX-160, N-(1-((5-fluoro-2-morpholinophenyl)amino)-1-oxo-3-phenylpropan-2-yl)thiophene-2-carboxamide]
MIC [1]: 0.78 µg/mL (≈ 1.72 µM) | MCC mammalian cells Vero E6 ATCC CRL1586 [2]: 30 µg/mL | MIC [3]: 0.097 µg/mL (≈ 0.214 µM) | MIC [4]: 0.78 µg/mL (≈ 1.72 µM)

O=C(NC(Cc1ccc(O)cc1)C(=O)Nc1cccc2c1OCCO2)c1ccccc1Br (stereo not drawn) [IX-176, 2-bromo-N-(1-((2,3-dihydrobenzo[b][1,4]dioxin-5-yl)amino)-3-(4-hydroxyphenyl)-1-oxopropan-2-yl)benzamide]
MIC [1]: 6.25 µg/mL (≈ 12.6 µM) | MCC mammalian cells Vero E6 ATCC CRL1586 [2]: 100.0 µg/mL | MIC [3]: 3.1 µg/mL (≈ 6.23 µM) | MIC [4]: 6.25 µg/mL (≈ 12.6 µM)

O=C(NC(Cc1ccccc1)C(=O)Nc1cc(F)ccc1OCF)c1ccccc1F (stereo not drawn) [IX-177, 2-fluoro-N-(1-((5-fluoro-2-(fluoromethoxy)phenyl)amino)-1-oxo-3-phenylpropan-2-yl)benzamide]
MIC [1]: 0.78 µg/mL (≈ 1.82 µM) | MCC mammalian cells Vero E6 ATCC CRL1586 [2]: >100 µg/mL | MIC [3]: 0.39 µg/mL (≈ 0.91 µM) | MIC [4]: 0.39 µg/mL (≈ 0.91 µM)

CC(=O)Oc1ccc(CC(NC(=O)c2ccccc2F)C(=O)Nc2ccccc2N2CCOCC2)cc1 (stereo not drawn) [IX-180, 4-(2-(2-fluorobenzamido)-3-((2-morpholinophenyl)amino)-3-oxopropyl)phenyl acetate]
MIC [1]: 6.25 µg/mL | MCC mammalian cells Vero E6 ATCC CRL1586 [2]: 91 µg/mL | MIC [3]: 0.097 µg/mL | MIC [4]: 1.56 µg/mL

CC(=O)Oc1ccc(CC(NC(=O)c2ccccc2C)C(=O)Nc2ccccc2N2CCOCC2)cc1 (stereo not drawn) [IX-181, 4-(2-(2-methylbenzamido)-3-((2-morpholinophenyl)amino)-3-oxopropyl)phenyl acetate]
MIC [1]: 3.12 µg/mL | MCC mammalian cells Vero E6 ATCC CRL1586 [2]: 84 µg/mL | MIC [3]: 0.097 µg/mL | MIC [4]: 0.78 µg/mL

CC(=O)Oc1ccc(CC(NC(=O)c2cccs2)C(=O)Nc2ccccc2N2CCOCC2)cc1 (stereo not drawn) [IX-182, 4-(3-((2-morpholinophenyl)amino)-3-oxo-2-(thiophene-2-carbox-amido)propyl)phenyl acetate]
MIC [1]: 3.12 µg/mL | MCC mammalian cells Vero E6 ATCC CRL1586 [2]: 99 µg/mL | MIC [3]: 0.097 µg/mL | MIC [4]: 0.78 µg/mL

O=C(NC(Cc1ccc(O)cc1)C(=O)Nc1ccccc1N1CCOCC1)c1cccs1 (stereo not drawn) [IX-183, N-(3-(4-hydroxyphenyl)-1-((2-morpholinophenyl)amino)-1-oxopropan-2-yl)thiophene-2-carboxamide]
MIC [1]: 6.25 µg/mL (≈ 13.8 µM) | MCC mammalian cells Vero E6 ATCC CRL1586 [2]: >100 µg/mL | MIC [3]: 0.097 µg/mL (≈ 0.215 µM) | MIC [4]: 1.56 µg/mL (≈ 3.45 µM)

Cc1ccc(F)cc1NC(=O)C(Cc1ccc(O)cc1)NC(=O)c1ccccc1F (stereo not drawn) [IX-184, 2-fluoro-N-(1-((5-fluoro-2-methylphenyl)amino)-3-(4-hydroxy-phenyl)-1-oxopropan-2-yl)benzamide]
MIC [1]: 3.12 µg/mL (≈ 7.61 µM) | MCC mammalian cells Vero E6 ATCC CRL1586 [2]: 77 µg/mL | MIC [3]: 0.39 µg/mL (≈ 0.95 µM) | MIC [4]: 1.56 µg/mL (≈ 3.8 µM)

Cc1ccc(F)cc1NC(=O)C(Cc1ccc(O)cc1)NC(=O)c1ccccc1C (stereo not drawn) [IX-186, N-(1-((5-fluoro-2-methylphenyl)amino)-3-(4-hydroxyphenyl)-1-oxopropan-2-yl)-2-methylbenzamide]
MIC [1]: 3.12 µg/mL (≈ 7.69 µM) | MCC mammalian cells Vero E6 ATCC CRL1586 [2]: 78 µg/mL | MIC [3]: 0.39 µg/mL (≈ 0.96 µM) | MIC [4]: 1.56 µg/mL (≈ 3.84 µM)

Cc1ccc(F)cc1NC(=O)C(Cc1ccc(O)cc1)NC(=O)c1cccs1 (stereo not drawn) [IX-188, N-(1-((5-fluoro-2-methylphenyl)amino)-3-(4-hydroxyphenyl)-1-oxopropan-2-yl)thiophene-2-carboxamide]
MIC [1]: 1.56 µg/mL (≈ 3.92 µM) | MCC mammalian cells Vero E6 ATCC CRL1586 [2]: 48 µg/mL | MIC [3]: 0.097 µg/mL (≈ 0.243 µM) | MIC [4]: 1.56 µg/mL (≈ 3.92 µM)

Cc1ccccc1C(=O)NC(Cc1ccccc1)C(=O)Nc1cccc2[nH]ncc12 (stereo not drawn) [IX-191, N-(1-((1H-indazol-4-yl)amino)-1-oxo-3-phenylpropan-2-yl)-2-methyl-benzamide]
MIC [1]: 12.5 µg/mL (≈ 31.4 µM) | MCC mammalian cells Vero E6 ATCC CRL1586 [2]: >100 µg/mL | MIC [3]: 0.39 µg/mL (≈ 0.979 µM) | MIC [4]: 12.5 µg/mL (≈ 31.4 µM)

O=C(NC(Cc1ccccc1)C(=O)Nc1cccc2[nH]ncc12)c1cccs1 (stereo not drawn) [IX-201, N-(1-((1H-indazol-4-yl)amino)-1-oxo-3-phenylpropan-2-yl)thiophene-2-carboxamide]
MIC [1]: 12.5 µg/mL (≈ 32 µM) | MCC mammalian cells Vero E6 ATCC CRL1586 [2]: 47 µg/mL | MIC [3]: 0.09 µg/mL (≈ 0.23 µM) | MIC [4]: 25 µg/mL (≈ 64 µM)

COc1ccc(F)cc1NC(=O)C(Cc1ccc(O)cc1)NC(=O)c1ccccc1 (stereo not drawn) [IX-203, N-(1-((5-fluoro-2-methoxyphenyl)amino)-3-(4-hydroxyphenyl)-1-oxopropan-2-yl)benzamide]
MIC [1]: 0.78 µg/mL (≈ 1.91 µM) | MCC mammalian cells Vero E6 ATCC CRL1586 [2]: >100 µg/mL | MIC [3]: 0.195 µg/mL (≈ 0.477 µM) | MIC [4]: 0.78 µg/mL (≈ 1.91 µM)

COc1ccc(F)cc1NC(=O)C(Cc1ccc(O)cc1)NC(=O)c1ccccc1C (stereo not drawn) [IX-205, N-(1-((5-fluoro-2-methoxyphenyl)amino)-3-(4-hydroxyphenyl)-1-oxopropan-2-yl)-2-methylbenzamide]
MIC [1]: 0.78 µg/mL (≈ 1.85 µM) | MCC mammalian cells Vero E6 ATCC CRL1586 [2]: 70 µg/mL | MIC [3]: 0.39 µg/mL (≈ 0.923 µM) | MIC [4]: 0.78 µg/mL (≈ 1.85 µM)

COc1ccc(F)cc1NC(=O)C(Cc1ccc(O)cc1)NC(=O)c1cccs1 (stereo not drawn) [IX-206, N-(1-((5-fluoro-2-methoxyphenyl)amino)-3-(4-hydroxyphenyl)-1-oxopropan-2-yl)thiophene-2-carboxamide]
MIC [1]: 0.39 µg/mL (≈ 0.941 µM) | MCC mammalian cells Vero E6 ATCC CRL1586 [2]: 70 µg/mL | MIC [3]: 0.195 µg/mL (≈ 0.47 µM) | MIC [4]: 0.78 µg/mL (≈ 1.88 µM)

O=C(NC(Cc1ccc(O)cc1)C(=O)Nc1ccccc1N1CCNCC1)c1cccs1 (stereo not drawn) [IX-219, N-(3-(4-hydroxyphenyl)-1-oxo-1-((2-(piperazin-1-yl)phenyl)amino)-propan-2-yl)thiophene-2-carboxamide]
MIC [1]: 3.12 µg/mL (≈ 6.94 µM) | MCC mammalian cells Vero E6 ATCC CRL1586 [2]: 69 µg/mL | MIC [3]: 0.78 µg/mL (≈ 1.73 µM) | MIC [4]: 1.56 µg/mL (≈ 3.46 µM)

O=C(NC(Cc1ccc(O)cc1)C(=O)Nc1cc(F)ccc1N1CCNCC1)c1cccs1 (stereo not drawn) [IX-222, N-(1-((5-fluoro-2-(piperazin-1-yl)phenyl)amino)-3-(4-hydroxyphen-yl)-1-oxopropan-2-yl)thiophene-2-carboxamide]
MIC [1]: 1.56 µg/mL (≈ 3.33 µM) | MCC mammalian cells Vero E6 ATCC CRL1586 [2]: 38 µg/mL | MIC [3]: 0.78 µg/mL (≈ 1.66 µM) | MIC [4]: 1.56 µg/mL (≈ 3.33 µM)

O=C(NC(Cc1ccccc1)C(=O)Nc1cccc2[nH]nnc12)c1ccccc1 (stereo not drawn) [IX-223, N-(1-((1H-benzo[d][1,2,3]triazol-4-yl)amino)-1-oxo-3-phenylpropan-2-yl)benzamide]
MIC [1]: 50 µg/mL (≈ 130 µM) | MCC mammalian cells Vero E6 ATCC CRL1586 [2]: 64 µg/mL | MIC [3]: 0.78 µg/mL (≈ 2.02 µM) | MIC [4]: 25 µg/mL (≈ 64.9 µM)
